Data: ChEMBL document CHEMBL4402592, “Targeting Endoplasmic Reticulum α-Glucosidase I with a Single-Dose Iminosugar Treatment Protects against Lethal Influenza and Dengue Virus Infections” (J Med Chem, 2020)
The source made the active and inactive calls. The calls are words filed in the database; no cut-off is given here.

Columns and labels:
[1] = system: Mus musculus; assay: In vivo inhibition of ERGlu1 in BALB/c mouse assessed as increase in tri-glucosylated FOS level in serum at >250 mg/kg, po administered via gavage as single dose at 8 hrs post-infection measured at 8 hrs post-dose by NP-HPLC analysis; format: functional, organism-based
[2] = system: Mus musculus; assay: In vivo inhibition of ERGlu2 in BALB/c mouse assessed as increase in di-glucosylated FOS level in serum at 100 mg/kg, po administered via gavage starting at 8 hrs post-infection and continuing tid for 5 days and measured at 8 hrs post-final dose by NP-HPLC analysis; format: functional, organism-based
[3] = system: Influenza A virus; assay: Antiviral activity against Influenza A virus (A/Texas/36/1991(H1N1)) infected in BALB/c mouse assessed as animal survival at 100 mg/kg, po administered via gavage starting at 8 hrs post-infection and continuing TID for 5 days (reference value: 0%); format: functional
[4] = system: Influenza A virus; assay: Antiviral activity against Influenza A virus (A/Texas/36/1991(H1N1)) infected in BALB/c mouse assessed as animal survival at 750 mg/kg, po administered via gavage as single dose at 8 hrs post infection (reference value: 0%); format: functional
[5] = system: Influenza A virus; assay: Antiviral activity against Influenza A virus (A/Texas/36/1991(H1N1)) infected in BALB/c mouse assessed as animal survival at 500 mg/kg, po administered via gavage as single dose at 8 hrs post infection (reference value: 0%); format: functional
[6] = system: Influenza A virus; assay: Antiviral activity against Influenza A virus (A/Texas/36/1991(H1N1)) infected in BALB/c mouse assessed as animal survival at 750 mg/kg, po administered via gavage as two doses at 8 and 32 hrs post infection (reference value: 0%); format: functional
[7] = system: Influenza A virus; assay: Antiviral activity against Influenza A virus (A/Texas/36/1991(H1N1)) infected in BALB/c mouse assessed as animal survival at 500 mg/kg, po administered via gavage as two doses at 8 and 32 hrs post infection (reference value: 0%); format: functional
[8] = system: Influenza A virus; assay: Antiviral activity against Influenza A virus (A/Texas/36/1991(H1N1)) infected in BALB/c mouse assessed as animal survival at 250 mg/kg, po administered via gavage as two doses at 8 and 32 hrs post infection (reference value: 0%); format: functional
[9] = system: Influenza A virus; assay: Antiviral activity against Influenza A virus (A/Texas/36/1991(H1N1)) infected in BALB/c mouse assessed as animal survival at 750 mg/kg, po administered via gavage as single dose at 16 hrs post infection (reference value: 0%); format: functional
[10] = system: Influenza A virus; assay: Antiviral activity against Influenza A virus (A/Texas/36/1991(H1N1)) infected in BALB/c mouse assessed as animal survival at 500 mg/kg, po administered via gavage as single dose at 24 hrs post infection (reference value: 0%); format: functional
[11] = system: Influenza A virus; assay: Antiviral activity against Influenza A virus (A/Texas/36/1991(H1N1)) infected in BALB/c mouse assessed as median death time at 750 mg/kg, po administered via gavage as single dose at 8 hrs post infection; format: functional
[12] = system: Influenza A virus; assay: Antiviral activity against Influenza A virus (A/Texas/36/1991(H1N1)) infected in BALB/c mouse assessed as median death time at 500 mg/kg, po administered via gavage as single dose at 8 hrs post infection; format: functional
[13] = system: Influenza A virus; assay: Antiviral activity against Influenza A virus (A/Texas/36/1991(H1N1)) infected in BALB/c mouse assessed as median death time at 250 mg/kg, po administered via gavage as single dose at 8 hrs post infection; format: functional
[14] = system: Influenza A virus; assay: Antiviral activity against Influenza A virus (A/Texas/36/1991(H1N1)) infected in BALB/c mouse assessed as median death time at 500 mg/kg, po administered via gavage as three dosed at 8, 32 and 56 hrs post infection (reference value: 8 days); format: functional
[15] = system: dengue virus type 2; assay: Antiviral activity against Dengue virus 2 S221 infected in DENV antibody dependent enhancement AG129 mouse model assessed as animal survival at 250 mg/kg, po administered via gavage as two doses at 8 and 24 hrs post infection (reference value: 4%); format: functional
[16] = system: dengue virus type 2; assay: Antiviral activity against Dengue virus 2 S221 infected in DENV antibody dependent enhancement AG129 mouse model assessed as animal survival at 375 mg/kg, po administered via gavage as two doses at 36 and 52 hrs post infection (reference value: 4%); format: functional
[17] = system: dengue virus type 2; assay: (§1) Antiviral activity against Dengue virus 2 S221 infected in DENV antibody dependent enhancement AG129 mouse model assessed as reduction in IL10 level at 750 mg/kg, po administered via gavage as single dose at 36 hrs post infection measured at 60 hrs post-infection by electrochemiluminescence based method; format: functional, organism-based
[18] = system: dengue virus type 2; assay: as §1, with “IL-12/IL-23p40” for “IL10”; format: functional, organism-based
[19] = system: dengue virus type 2; assay: as §1, with “IL-12/IL-23p40” for “IL10”, “two doses” for “single dose”, “36 hrs and 52” for “36”; format: functional, organism-based
[20] = system: dengue virus type 2; assay: as §1, with “IFN-gamma” for “IL10”, “72” for “60”; format: functional, organism-based
[21] = system: dengue virus type 2; assay: as §1, with “IL-10” for “IL10”, “two doses” for “single dose”, “36 hrs and 52” for “36”, “72” for “60”; format: functional, organism-based
[22] = system: dengue virus type 2; assay: as §1, with “KC-GRO” for “IL10”, “two doses” for “single dose”, “36 hrs and 52” for “36”, “72” for “60”; format: functional, organism-based
[23] = system: Mus musculus; assay: In vivo inhibition of ERGlu2 in BALB/c mouse assessed as increase in mono-glucosylated FOS level in serum at 20 mg/kg, po administered via gavage starting at 8 hrs post-infection and continuing tid for 5 days and measured at 8 hrs post-final dose by NP-HPLC analysis; format: functional, organism-based
[24] = system: Mus musculus; assay: In vivo inhibition of ERGlu1 in BALB/c mouse assessed as increase in tri-glucosylated FOS level in lung at >250 mg/kg, po administered via gavage as single dose at 8 hrs post-infection and measured at 8 hrs post dose by NP-HPLC analysis; format: functional, organism-based
[25] = Toxicity in po dosed cynomolgus monkey assessed as maximum tolerated dose administered via gavage as single dose; format: organism-based, Macaca fascicularis; details: in vivo
[26] = system: Influenza A virus; assay: Antiviral activity against Influenza A virus (A/PA/10/2010 (H3N2)) infected in BALB/c mouse assessed as increase in animal survival rate at >250 mg/kg, po administered via gavage as single dose at 8 hrs post infection; format: functional, organism-based
[27] = system: Mus musculus; assay: In vivo inhibition of ERGlu1 in BALB/c mouse assessed as increase in mono-glucosylated FOS level in serum at 100 to 1000 mg/kg, po administered via gavage at 8 hrs post-infection and measured at 8 hrs post-dose by NP-HPLC analysis; format: functional, organism-based
[28] = system: Mus musculus; assay: In vivo inhibition of ERGlu2 in BALB/c mouse assessed as increase in mono-glucosylated FOS level in spleen at 20 mg/kg, po administered via gavage starting at 8 hrs post-infection and continuing tid for 5 days and measured at 8 hrs post-final dose by NP-HPLC analysis; format: functional, organism-based

COCCCCCCCCCN1C[C@H](O)[C@@H](O)[C@H](O)[C@H]1CO.Cl
inhibition [1]: Active
inhibition [2]: Active
survival at 100 mg/kg [3]: 90%
survival at 750 mg/kg [4]: 80%
survival at 500 mg/kg [5]: 50%
survival at 750 mg/kg [6]: 100%
survival at 500 mg/kg [7]: 100%
survival at 250 mg/kg [8]: 60%
survival at 750 mg/kg [9]: 70%
survival at 500 mg/kg [10]: 30%
Time [11]: >14 days
Time [12]: 12.5 days
Time [13]: 8 days
Time [14]: >14 days
survival at 250 mg/kg [15]: 86%
survival at 375 mg/kg [16]: 100%
Activity [17]: Active
Activity [18]: Active
Activity [19]: Active
Activity [20]: Active
Activity [21]: Active
Activity [22]: Active
inhibition [23]: Active
inhibition [24]: Active
MTD [25]: 258 mg/kg
Activity [26]: Active
inhibition [27]: Active
inhibition [28]: Active
